Experiments:
Assay type in all cases: biochemical, Neofusicoccum parvum
Bgl3 = test system: T1, Bgl3; assay: 4-nitrophenol release at […] nm, Lineweaver-Burk plot; conditions: standard assay described as 50 mM sodium acetate pH 5.0, 55 °C; 4-NPG 0-13.28 mM
T1 construct: native extracellular enzyme purified from culture supernatant (ammonium sulphate, HiTrap Q FF, native gel extraction); about 65 kDa; GH3 only inferred by authors

Bgl2 = test system: T2, Bgl2; assay: 4-NPG hydrolysis, absorbance at […] nm, glucose […]; conditions: product inhibition; substrate 4-NPG; standard assay described as 50 mM sodium acetate pH 5.0, 55 °C
T2 construct: native extracellular enzyme purified from culture supernatant, extracted from native gel; 230 kDa on native PAGE

Bgl1 = test system: T3, Bgl1; assay: 4-NPG hydrolysis, absorbance at […] nm, glucose […]; conditions: product inhibition; substrate 4-NPG; standard assay described as 50 mM sodium acetate pH 5.0, 55 °C
T3 construct: native extracellular enzyme purified from culture supernatant, extracted from native gel; 240 kDa on native PAGE

| SMILES | Km (Bgl3) | IC50 (Bgl2) | IC50 (Bgl1) |
| --- | --- | --- | --- |
| O=[N+]([O-])c1ccc(O[C@@H]2O[C@H](CO)[C@@H](O)[C@H](O)[C@H]2O)cc1 [4-nitrophenyl-β-D-glucopyranoside] | 1180 µM |  |  |
| OC[C@H]1OC(O)[C@H](O)[C@@H](O)[C@@H]1O (stereo partly drawn) [glucose] |  | 22.6 mM | 2.6 mM |

From article PMC10060427, “A glucose tolerant β-glucosidase from a newly isolated Neofusicoccum parvum strain F7: production, purification, and characterization” (Scientific Reports, 2023)
